The values that follow come from patent publication US8273762B2, “Hexahydro-pyrrolo-isoquinoline compounds” (Janssen Pharmaceutica NV, priority 2005, dated 2012).

SMILES strings stand for the structures. Read-outs that look alike come from different tables or passages of the source.

Assay [1] deals with T1, human SERT (HEK293 membranes) (Homo sapiens, UniProt P31645).
T1 construct: purchased Perkin-Elmer; host or cells: HEK293 membranes
Nature of the assay: Human SERT binding (3H-citalopram displacement).
Experimental: Nonspecific binding was determined in the presence of 10 μM fluoxetine for the SERT. The membranes were washed and the radioactivity was counted as above.

Assay [2] addresses T2, human H3 receptor (SK-N-MC cells) (Homo sapiens, UniProt Q9Y5N1).
T2 construct: expressed in transfected cells; host or cells: SK-N-MC sublines with CRE-beta-galactosidase reporter
The assay is described as follows: Cyclic AMP accumulation (β-galactosidase reporter, Schild analysis vs histamine). It is filed as cell-based.
Experimental: The reporter gene (β-galactosidase) is under the control of multiple cyclic AMP responsive elements. In 96-well plates, histamine was added directly to the cell media followed 5 min later by an addition of forskolin (5 μM final concentration). When appropriate, antagonists were added 10 min prior to agonist addition. After a 6-h incubation at 37° C., the media was aspirated and the cells washed with 200 μL of phosphate-buffered saline followed by a second aspiration. Cells were lysed with 25 μL 0.1× assay buffer (10 mM Na-phosphate, pH 8, 0.2 mM MgSO4, 0.01 mM MnCl2) and incubated at rt for 10 min. Cells were then incubated for 10 min with 100 μL of 1× assay buffer containing 0.5% Triton and 40 mM β-mercaptoethanol. Color was developed using 25 μL of 1 mg/mL substrate solution (chlorophenolred β-D galactopyranoside; Roche Molecular Biochemicals, Indianapolis, Ind.).

The target in assay [3] is T3, cloned human H3 receptor, stably expressed in SK-N-MC cells (Homo sapiens, UniProt Q9Y5N1).
T3 construct: expressed in transfected cells
T3 sequence (Q9Y5N1 whole entry): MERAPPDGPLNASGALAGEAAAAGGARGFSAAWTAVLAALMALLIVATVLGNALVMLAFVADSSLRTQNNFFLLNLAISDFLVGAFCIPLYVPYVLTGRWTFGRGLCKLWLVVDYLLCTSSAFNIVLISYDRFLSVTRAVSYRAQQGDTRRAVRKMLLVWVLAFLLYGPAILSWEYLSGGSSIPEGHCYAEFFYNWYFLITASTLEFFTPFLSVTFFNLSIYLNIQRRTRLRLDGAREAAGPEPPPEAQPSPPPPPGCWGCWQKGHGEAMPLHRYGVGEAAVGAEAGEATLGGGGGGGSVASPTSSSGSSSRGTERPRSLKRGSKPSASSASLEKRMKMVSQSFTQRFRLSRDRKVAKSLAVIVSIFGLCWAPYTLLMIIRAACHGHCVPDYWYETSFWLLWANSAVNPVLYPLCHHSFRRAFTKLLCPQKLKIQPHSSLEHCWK
Nature of the assay: H3 receptor binding (N-[3H]-α-methylhistamine displacement). The note with it: SK-N-MC membranes, 0.8 nM N-[3H]-α-methylhistamine.

T2 sequence (Q9Y5N1 whole entry): as above
T1 sequence (P31645 whole entry): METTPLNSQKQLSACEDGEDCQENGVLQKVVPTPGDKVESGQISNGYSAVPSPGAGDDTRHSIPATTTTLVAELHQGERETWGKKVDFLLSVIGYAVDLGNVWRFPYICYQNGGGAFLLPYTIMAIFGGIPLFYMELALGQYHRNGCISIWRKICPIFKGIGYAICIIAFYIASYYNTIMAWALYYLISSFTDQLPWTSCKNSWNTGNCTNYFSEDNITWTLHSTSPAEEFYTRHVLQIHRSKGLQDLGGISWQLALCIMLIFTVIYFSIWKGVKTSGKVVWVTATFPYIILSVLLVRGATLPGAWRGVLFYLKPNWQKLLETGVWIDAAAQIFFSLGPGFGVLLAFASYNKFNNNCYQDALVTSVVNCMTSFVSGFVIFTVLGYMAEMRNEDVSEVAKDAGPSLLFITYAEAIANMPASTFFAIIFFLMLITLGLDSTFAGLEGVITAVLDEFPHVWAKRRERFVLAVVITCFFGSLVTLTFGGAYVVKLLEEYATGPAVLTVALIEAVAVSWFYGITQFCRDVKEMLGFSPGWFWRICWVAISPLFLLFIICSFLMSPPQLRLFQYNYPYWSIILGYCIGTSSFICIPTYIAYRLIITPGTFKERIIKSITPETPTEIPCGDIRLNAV

As a reminder, the Ki is a dissociation constant, usually derived from enzyme kinetics or from competition with a known ligand. A low value points to higher affinity. As to `O=[N+]([O-])c1ccc([C@H]2CN3CCC[C@H]3c3cc(OCCCN4CCCCC4)ccc32)cc1` (relative stereo) [Example 2A, Cis-6-(4-Nitro-phenyl)-9-(3-piperidin-1-yl-propoxy)-1,2,3,5,6,10b-hexahydro-pyrrolo[2,1-a]isoquinoline], the Ki turned out to be 6 nM in assay [1] and 1 nM in assay [3]. Besides, the Kb in assay [2] (read-out: H3 pA2 (converted)) is 0.398 nM.

For the compound `Nc1ccc([C@H]2CN3CCC[C@H]3c3cc(OCCCN4CCCCC4)ccc32)cc1` (relative stereo) [Example 3], the inhibition constant (Ki) in assay [1] is 8 nM; in assay [3] it was 0.5 nM. Besides, the Kb in assay [2] (read-out: H3 pA2 (converted)) was 0.0794 nM.

For the compound `O=[N+]([O-])c1cccc([C@H]2CN3CCC[C@H]3c3cc(OCCCN4CCCCC4)ccc32)c1` (relative stereo) [Example 4A, Cis-6-(3-Nitro-phenyl)-9-(3-piperidin-1-yl-propoxy)-1,2,3,5,6,10b-hexahydro-pyrrolo[2,1-a]isoquinoline], the Ki in assay [1] is 4 nM; in assay [3], 1 nM. Besides, in assay [2] (read-out: H3 pA2 (converted)), the Kb is 0.126 nM.

Consider `Cc1ccc([C@H]2CN3CCC[C@H]3c3cc(OCCCN4CCCCC4)ccc32)cc1` (relative stereo) [Example 5A, Cis-9-(3-Piperidine-1-yl-propoxy)-6-p-tolyl-1,2,3,5,6,10b-hexahydro-pyrrolo[2,1-a]isoquinoline], for which the figures for the inhibitory constant (Ki) in assay [1] and in assay [3] were 4 nM and 2 nM, respectively. In addition, the Kb in assay [2] (read-out: H3 pA2 (converted)) is 2.51 nM.

In the case of `Clc1ccc([C@@H]2CN3CCC[C@H]3c3cc(OCCCN4CCCCC4)ccc32)cc1Cl` (relative stereo) [Example 6A, Cis-6-(3,4-Dichloro-phenyl)-9-(3-piperidin-1-yl-propoxy)-1,2,3,5,6,10b-hexahydro-pyrrolo[2,1-a]isoquinoline], the values for the inhibition constant Ki in assay [1] and in assay [3] were 4 nM and 3 nM, respectively. For the same compound, the Kb in assay [2] (read-out: H3 pA2 (converted)) is 6.31 nM.

For the compound `FC(F)(F)c1ccc([C@H]2CN3CCC[C@H]3c3cc(OCCCN4CCCCC4)ccc32)cc1` (relative stereo) [Example 7A, Cis-9-(3-Piperidin-1-yl-propoxy)-6-(4-trifluoromethyl-phenyl)-1,2,3,5,6,10b-hexahydro-pyrrolo[2,1-a]isoquinoline], the inhibition constant Ki in assay [1] came out at 12 nM; in assay [3], 5 nM. In addition, the Kb in assay [2] (read-out: H3 pA2 (converted)) is 6.31 nM.

Take `Clc1ccccc1[C@@H]1CN2CCC[C@H]2c2cc(OCCCN3CCCCC3)ccc21` (relative stereo) [Example 12A, Cis-6-(2-Chloro-phenyl)-9-(3-piperidin-1-yl-propoxy)-1,2,3,5,6,10b-hexahydro-pyrrolo[2,1-a]isoquinoline]: the values for the inhibition constant (Ki) in assay [1] and in assay [3] were 8 nM and 2 nM, respectively. Moreover, in assay [2] (read-out: H3 pA2 (converted)), the Kb is 1.26 nM.

`Clc1ccccc1[C@H]1CN2CCC[C@H]2c2cc(OCCCN3CCCCC3)ccc21` (relative stereo) [Example 12B, Trans-6-(2-Chloro-phenyl)-9-(3-piperidin-1-yl-propoxy)-1,2,3,5,6,10b-hexahydro-pyrrolo[2,1-a]isoquinoline]: in assay [2] (read-out: H3 pA2 (converted)), the Kb is 0.631 nM. Also, the Ki in assay [3] came out at 1 nM.

Turning to `COc1ccccc1[C@H]1CN2CCC[C@H]2c2cc(OCCCN3CCCCC3)ccc21` (relative stereo) [Example 13A], affinity in assay [1] was put at a Ki of 21 nM.

For `Fc1ccc([C@@H]2CN3CCC[C@H]3c3cc(OCCCN4CCCCC4)ccc32)cc1` (relative stereo) [Example 14A, Cis-6-(4-Fluoro-phenyl)-9-(3-piperidin-1-yl-propoxy)-1,2,3,5,6,10b-hexahydro-pyrrolo[2,1-a]isoquinoline], the Ki in assay [1] amounted to 3 nM; in assay [3] it was 2 nM. In addition, in assay [2] (read-out: H3 pA2 (converted)), the Kb is 1 nM.

In the case of `Fc1ccc([C@H]2CN3CCC[C@H]3c3cc(OCCCN4CCCCC4)ccc32)cc1` (relative stereo) [Example 14B, Trans-6-(4-Fluoro-phenyl)-9-(3-piperidin-1-yl-propoxy)-1,2,3,5,6,10b-hexahydro-pyrrolo[2,1-a]isoquinoline], the Kb in assay [2] (read-out: H3 pA2 (converted)) is 0.794 nM. The same compound showed an inhibition constant (Ki) in assay [3] of 1 nM.

On to `Oc1cccc([C@H]2CN3CCC[C@H]3c3cc(OCCCN4CCCCC4)ccc32)c1` (relative stereo) [Example 15], for which the Ki is 3 nM in assay [1] and 0.7 nM in assay [3]. In assay [2] (read-out: H3 pA2 (converted)), the Kb is 0.126 nM.

`c1ccc([C@H]2CN3CCC[C@H]3c3cc(OCCCN4CCCCC4)ccc32)nc1` (relative stereo) [Example 25] returned a Kb in assay [2] of 0.1 nM. This compound also had an inhibition constant Ki in assay [3] of 0.8 nM.

Consider `c1cncc([C@H]2CN3CCC[C@H]3c3cc(OCCCN4CCCCC4)ccc32)c1` (relative stereo) [Example 26], for which, in assay [2] (read-out: H3 pA2 (converted)), the Kb is 0.0794 nM. Further, in assay [3], the Ki worked out at 0.8 nM.

Turning to `COc1ccc([C@H]2CN3CCC[C@H]3c3cc(OCC4CCN(C(C)C)CC4)ccc32)cc1` (relative stereo) [Example 29], the figures for the Ki in assay [1] and in assay [3] were 2 nM and 0.9 nM, respectively.

Take `Cc1cccc([C@H]2CN3CCC[C@H]3c3cc(OCCCN4CCCCC4)ccc32)c1` (relative stereo) [Example 31]: the Ki in assay [1] turned out to be 28 nM; in assay [3], 12 nM.

In the case of `Ic1ccc([C@H]2CN3CCC[C@H]3c3cc(OCCCN4CCCCC4)ccc32)cc1` (relative stereo) [Example 35B, Trans-6-(4-Iodo-phenyl)-9-(3-piperidin-1-yl-propoxy)-1,2,3,5,6,10b-hexahydro-pyrrolo[2,1-a]isoquinoline], the Kb in assay [2] (read-out: H3 pA2 (converted)) is 3.16 nM. Also, the inhibitory constant (Ki) in assay [3] is 2 nM.

Turning to `COc1ccc([C@H]2CN3CCC[C@H]3c3cc(OCCCN4CCOCC4)ccc32)cc1` (relative stereo) [Example 38], the Ki in assay [1] worked out at 7 nM.

For `CSc1ccc([C@H]2CN3CCC[C@H]3c3cc(OCCCN4CCCCC4)ccc32)cc1` (relative stereo) [Example 39A, Cis-6-(4-Methylsulfanyl-phenyl)-9-(3-piperidin-1-yl-propoxy)-1,2,3,5,6,10b-hexahydro-pyrrolo[2,1-a]isoquinoline], the values for the Ki in assay [1] and in assay [3] were 4 nM and 2 nM, respectively.

For `Brc1ccc([C@H]2CN3CCC[C@H]3c3cc(OCCCN4CCCCC4)ccc32)cc1` (relative stereo) [Example 40], the inhibitory constant (Ki) in assay [1] is 18 nM; in assay [3], 3 nM.

Regarding `COc1ccc([C@H]2CN3CCC[C@H]3c3cc(OCCCN4CCC(F)CC4)ccc32)cc1` (relative stereo) [Example 47], the Ki in assay [1] was 5 nM; in assay [3], 3 nM.

As to `Clc1ccc([C@@H]2CN3CCC[C@H]3c3cc(OCCCN4CCCCC4)ccc32)cc1` (relative stereo) [Example 66A, Cis-6-(4-Chloro-phenyl)-9-(3-piperidin-1-yl-propoxy)-1,2,3,5,6,10b-hexahydro-pyrrolo[2,1-a]isoquinoline], the inhibition constant (Ki) in assay [1] is 6 nM; in assay [3], 2 nM.

`CSc1ccc([C@H]2CN3CCC[C@H]3c3ccc(C#CCCN4CCCCC4)cc32)cc1` (relative stereo) [Example 97B, Trans-6-(4-methylsulfanyl-phenyl)-8-(4-piperidin-1-yl-but-1-ynyl)-1,2,3,5,6,10b-hexahydro-pyrrolo[2,1-a]isoquinoline]: the Kb in assay [2] (read-out: H3 pA2 (converted)) is 10 nM. Also, in assay [3], the Ki was determined as 12 nM.

For the compound `CSc1ccc([C@H]2CN3CCC[C@H]3c3cc(C#CCCN4CCCCC4)ccc32)cc1` (relative stereo) [Example 98B, Trans-6-(4-methylsulfanyl-phenyl)-9-(4-piperidin-1-yl-but-1-ynyl)-1,2,3,5,6,10b-hexahydro-pyrrolo[2,1-a]isoquinoline], the Kb in assay [2] (read-out: H3 pA2 (converted)) is 2.51 nM. Affinity in assay [3] was put at a Ki of 3 nM.
